The record followed here is ChEMBL document CHEMBL5500371, “Arginine and tryptophan-rich dendritic antimicrobial peptides that disrupt membranes for bacterial infection in vivo” (Eur J Med Chem, 2024).

Activity calls are given as the source filed them. No cut-off for these calls is given here.

In data set [1] the test system is Escherichia coli. Kind of data set: Resistant development in Escherichia coli assessed as increase in MIC at sub-MIC measured after 20 passages. Type of data set: functional, organism-based.
The subject of data set [2] is Escherichia coli. Kind of data set: Drug resistance, ratio of MIC for Escherichia coli after 14 to 19 passages to MIC for Escherichia coli after initial exposure. Type of data set: functional, organism-based.
Data set [3] concerns Staphylococcus aureus. Briefly: Drug resistance, ratio of MIC for Staphylococcus aureus after 14 to 19 passages to MIC for Staphylococcus aureus after initial exposure. Type of data set: functional, organism-based.
Data set [4] is described as follows: Cytotoxicity against HEK293T cells assessed as cell death measured after 1 hr by resazurin dye based analysis. In kind it is toxicity, HEK-293T. The conditions noted are these: human, HEK293T cells. (Alamar Blue is a resazurin reagent that responds to reducing activity.)
A further data set concerns Acinetobacter baumannii. Kind of data set: Antibacterial activity against Acinetobacter baumannii ATCC 19606 assessed as inhibition of bacterial growth incubated for 20 hrs by broth microdilution method. Type of data set: functional. Background: In broth dilution the organism is exposed to a series of concentrations in liquid medium.
Data set [5] can be described thus: Therapeutic index, ratio of MHC10 for hemolytic activity in mouse erythrocytes preincubated with 10% mouse serum for 6 hrs to MIC for Escherichia coli ATCC 25922 preincubated with 10% mouse serum for 6 hrs. In kind it is toxicity, cell-based. The conditions noted are these: mouse erythrocytes, read-out: TI.
Data set [6] concerns Escherichia coli. Briefly: Antibacterial activity against Escherichia coli ATCC 25922 assessed as inhibition of bacterial growth preincubated with 10% mouse serum for 6 hrs and measured after 20 hrs by broth microdilution method. Type of data set: functional. The conditions noted are these: time 26 hrs.
The nature of data set [7]: Stability in mouse serum assessed as half life at 10 mM measured upto 24 hrs by RP-HPLC analysis. Type of data set: ADME, cell-free.
The subject of data set [8] is Staphylococcus aureus. Briefly: Antibacterial activity against Staphylococcus aureus ATCC 25923 assessed as inhibition of bacterial growth preincubated with 10% mouse serum for 6 hrs and measured after 20 hrs by broth microdilution method. Type of data set: functional. The conditions noted are these: time 21 hrs.
Data set [9] deals with Escherichia coli. Briefly: Antibacterial activity against Escherichia coli ATCC 25922 assessed as inhibition of bacterial growth incubated for 20 hrs in presence of NaCl by broth microdilution method (reference value: 16 microM). In kind it is functional.
The subject of data set [10] is Staphylococcus aureus. Kind of data set: Antibacterial activity against Staphylococcus aureus ATCC 25923 assessed as inhibition of bacterial growth by measuring fold increase in MIC incubated for 20 hrs in presence of FeCl3 by broth microdilution method relative to control. Type of data set: functional.
A further data set deals with Klebsiella pneumoniae. Kind of data set: Antibacterial activity against Klebsiella pneumoniae ATCC 700603 assessed as inhibition of bacterial growth incubated for 20 hrs by broth microdilution method. Type of data set: functional.
The subject of the next data set is Bacillus subtilis. Kind of data set: Antibacterial activity against Bacillus subtilis ATCC 23857 assessed as inhibition of bacterial growth incubated for 20 hrs by broth microdilution method. In kind it is functional.
The nature of data set [11]: Therapeutic index, ratio of MHC10 for hemolytic activity in mouse erythrocytes preincubated with 10% mouse serum for 6 hrs to MIC for Staphylococcus aureus ATCC 25923 preincubated with 10% mouse serum for 6 hrs. In kind it is toxicity, cell-based. The following applies: mouse erythrocytes, read-out: TI.
Data set [12] relates to Staphylococcus aureus. Kind of data set: Antibacterial activity against Staphylococcus aureus ATCC 25923 assessed as inhibition of bacterial growth incubated for 20 hrs in presence of NaCl by broth microdilution method (reference value: 8 microM). Type of data set: functional.
For data set [13], the system named is Staphylococcus aureus. Briefly: Antibacterial activity against Staphylococcus aureus ATCC 25923 assessed as inhibition of bacterial growth incubated for 20 hrs in presence of FeCl3 by broth microdilution method (reference value: 8 microM). Type of data set: functional.
For data set [14], the system named is Staphylococcus aureus. Kind of data set: Antibacterial activity against Staphylococcus aureus ATCC 25923 assessed as inhibition of bacterial growth by measuring fold increase in MIC incubated for 20 hrs in presence of MgCl2 by broth microdilution method relative to control. Type of data set: functional.
The subject of data set [15] is Staphylococcus aureus. Kind of data set: Antibacterial activity against Staphylococcus aureus ATCC 25923 assessed as inhibition of bacterial growth by measuring fold increase in MIC incubated for 20 hrs in presence of ZnCl2 by broth microdilution method relative to control. In kind it is functional.
A further data set has as its system Pseudomonas aeruginosa. Briefly: Antibacterial activity against Pseudomonas aeruginosa ATCC 27853 assessed as inhibition of bacterial growth incubated for 20 hrs by broth microdilution method. Type of data set: functional.
For data set [16], the system named is Escherichia coli. Kind of data set: Antibacterial activity against Escherichia coli ATCC 25922 assessed as inhibition of bacterial growth incubated for 20 hrs in presence of MgCl2 by broth microdilution method (reference value: 16 microM). Type of data set: functional.
Data set [17] in a line: Therapeutic index, ratio of MHC10 for hemolytic activity in mouse erythrocytes preincubated with 10% mouse serum for 1 hr to MIC for Staphylococcus aureus ATCC 25923 preincubated with 10% mouse serum for 1 hr. In kind it is toxicity, cell-based. The following applies: mouse erythrocytes, read-out: TI.
The test system of data set [18] is Staphylococcus aureus. Briefly: Antibacterial activity against Staphylococcus aureus ATCC 25923 assessed as inhibition of bacterial growth incubated for 20 hrs in presence of ZnCl2 by broth microdilution method (reference value: 8 microM). Type of data set: functional.
Data set [19] concerns Staphylococcus aureus. Briefly: Antibacterial activity against Staphylococcus aureus ATCC 25923 assessed as inhibition of bacterial growth incubated for 20 hrs in presence of KCl by broth microdilution method (reference value: 8 microM). Type of data set: functional.
Data set [20] can be described thus: Hemolytic activity in mouse erythrocytes at 256 uM preincubated for 1 to 6 hr with 10% mouse serum and measured after 1 hr by absorbance based analysis. The conditions noted are these: time 1-7 hrs, read-out: Activity. In kind it is toxicity, cell-based, Erythrocyte.
Data set [21] deals with Staphylococcus aureus. Kind of data set: Antibacterial activity against Staphylococcus aureus ATCC 25923 assessed as inhibition of bacterial growth preincubated with 10% mouse serum for 1 hr and measured after 20 hrs by broth microdilution method. In kind it is functional. The conditions noted are these: time 21 hrs.
For data set [22], the system named is Staphylococcus aureus. Briefly: Antibacterial activity against Staphylococcus aureus ATCC 25923 assessed as inhibition of bacterial growth incubated for 20 hrs by broth microdilution method. Type of data set: functional.
A short description of data set [23]: Therapeutic index, ratio of MHC10 for hemolytic activity in mouse erythrocytes preincubated with 10% mouse serum for 1 hr to MIC for Escherichia coli ATCC 25922 preincubated with 10% mouse serum for 1 hr. The following applies: mouse erythrocytes, read-out: TI. In kind it is toxicity, cell-based.
Data set [24] relates to Escherichia coli. Briefly: Antibacterial activity against Escherichia coli ATCC 25922 assessed as inhibition of bacterial growth incubated for 20 hrs in presence of KCl by broth microdilution method (reference value: 16 microM). Type of data set: functional.
Data set [25] deals with Escherichia coli. Briefly: Antibacterial activity against Escherichia coli ATCC 25922 assessed as inhibition of bacterial growth incubated for 20 hrs in presence of ZnCl2 by broth microdilution method (reference value: 16 microM). Type of data set: functional.
The subject of data set [26] is Staphylococcus aureus. Briefly: Antibacterial activity against Staphylococcus aureus ATCC 25923 assessed as inhibition of bacterial growth by measuring fold increase in MIC incubated for 20 hrs in presence of KCl by broth microdilution method relative to control. Type of data set: functional.
Data set [27] deals with Staphylococcus aureus. Briefly: Antibacterial activity against Staphylococcus aureus ATCC 25923 assessed as inhibition of bacterial growth incubated for 20 hrs in presence of MgCl2 by broth microdilution method (reference value: 8 microM). Type of data set: functional.
For data set [28], the system named is Escherichia coli. Kind of data set: Antibacterial activity against Escherichia coli ATCC 25922 assessed as inhibition of bacterial growth preincubated with 10% mouse serum for 1 hr and measured after 20 hrs by broth microdilution method. Type of data set: functional. The following applies: time 21 hrs.
Data set [29] deals with Escherichia coli. Kind of data set: Antibacterial activity against Escherichia coli ATCC 25922 assessed as inhibition of bacterial growth incubated for 20 hrs by broth microdilution method. In kind it is functional.
The test system of data set [30] is Escherichia coli. Kind of data set: Antibacterial activity against Escherichia coli ATCC 25922 assessed as inhibition of bacterial growth incubated for 20 hrs in presence of FeCl3 by broth microdilution method (reference value: 16 microM). Type of data set: functional.
For another data set, the system named is Erythrocyte. Kind of data set: Hemolytic activity in mouse erythrocytes assessed as 10% hemolysis incubated for 1 hr by absorbance based analysis. In kind it is toxicity, cell-based.
For data set [31], the system named is Staphylococcus aureus. Kind of data set: Antibacterial activity against Staphylococcus aureus ATCC 25923 assessed as inhibition of bacterial growth by measuring fold increase in MIC incubated for 20 hrs in presence of NaCl by broth microdilution method relative to control. In kind it is functional.

For the substance GENTAMICIN, the result in the data set with Escherichia coli [1] was Active. Further, the Ratio in the data set on Escherichia coli [2] and in the data set with Staphylococcus aureus [3] was 32 in each case.
The CC50 is the concentration at which the toxic effect on the cells reaches its halfway point. The term MIC denotes the lowest concentration that inhibits growth of the organism. Usually half-life stands for the time in which the quantity being followed falls by half. H-WWWWKRRRR-NH2: in data set [4], the CC50 at 1 h is greater than 128 µM. Further, the minimum inhibitory concentration (MIC) with Acinetobacter baumannii came out at 32 µM; with Escherichia coli [6], 8 µM; in the data set on Staphylococcus aureus [8], 8 µM; in the data set on Escherichia coli [9] it was 32 µM; in the data set with Klebsiella pneumoniae, 64 µM; with Bacillus subtilis, 8 µM. Further, the MIC with Staphylococcus aureus [12], with Staphylococcus aureus [13], with Pseudomonas aeruginosa, in the data set with Escherichia coli [16], in the data set with Staphylococcus aureus [18] and in the data set on Staphylococcus aureus [19] was 8 µM throughout. For the same substance, the MIC in the data set with Staphylococcus aureus [21] worked out at 2 µM; in the data set with Staphylococcus aureus [22], 8 µM; with Escherichia coli [24] it was 8 µM; in the data set with Escherichia coli [25] it was 16 µM; with Staphylococcus aureus [27], 8 µM; in the data set on Escherichia coli [28], 2 µM. The values for the MIC with Escherichia coli [29] and with Escherichia coli [30] were 32 µM and 16 µM, respectively. Further, the selectivity ratio turned out to be 0.13 in data set [5], 0.13 in data set [11], 0.5 in data set [17] and 0.5 in data set [23]. For the same substance, the half-life at 10000 µM in data set [7] was found to be 1.42 h. The “fold change (FC)” value in the data set on Staphylococcus aureus [10], in the data set with Staphylococcus aureus [14], with Staphylococcus aureus [15], with Staphylococcus aureus [26] and with Staphylococcus aureus [31] was “<=2” each time. The hemolysis at 1 h, 256 µM in data set [20] was less than 10%. In addition, in the data set on Erythrocyte, the MHC10 was greater than 256 µM.
